In article PMC8219695 (Nature Communications, 2021):
Where “and” joins values, the source holds several entries; their conditions need not be identical. Equal values may be shown once.

Columns and labels:
hDOR = hDOR (Homo sapiens, UniProt P41143); assay: CAMYEL BRET cAMP agonist assay at hDOR; type: cell-based; conditions: for Agonist activity of 7OH analogs at hDOR: single replicate values, Supplementary Figure 7A
rKOR = biological target: T1, rKOR (Rattus norvegicus, UniProt P34975); assay: CAMYEL BRET cAMP agonist assay at rKOR; type: cell-based; conditions: individual replicates, Supplementary Figure 8B source data
T1 construct: expressed in transfected cells
T1 sequence (P34975 whole entry): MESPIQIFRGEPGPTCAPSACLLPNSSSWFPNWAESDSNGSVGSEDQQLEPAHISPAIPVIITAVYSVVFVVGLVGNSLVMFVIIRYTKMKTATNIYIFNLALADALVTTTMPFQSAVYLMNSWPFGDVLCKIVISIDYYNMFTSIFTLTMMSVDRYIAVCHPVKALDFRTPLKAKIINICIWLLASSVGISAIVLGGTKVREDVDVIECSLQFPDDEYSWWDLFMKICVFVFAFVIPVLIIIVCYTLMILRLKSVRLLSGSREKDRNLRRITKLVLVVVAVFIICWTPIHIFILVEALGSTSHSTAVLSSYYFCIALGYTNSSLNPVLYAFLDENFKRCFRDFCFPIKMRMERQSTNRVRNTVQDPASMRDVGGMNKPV

hMOR = biological target: T2, hMOR (Homo sapiens, UniProt P35372); assay: cell-based
T2 construct: expressed in transfected cells; plasmid a gift from Dr. Nevin Lambert
T2 sequence (P35372 whole entry): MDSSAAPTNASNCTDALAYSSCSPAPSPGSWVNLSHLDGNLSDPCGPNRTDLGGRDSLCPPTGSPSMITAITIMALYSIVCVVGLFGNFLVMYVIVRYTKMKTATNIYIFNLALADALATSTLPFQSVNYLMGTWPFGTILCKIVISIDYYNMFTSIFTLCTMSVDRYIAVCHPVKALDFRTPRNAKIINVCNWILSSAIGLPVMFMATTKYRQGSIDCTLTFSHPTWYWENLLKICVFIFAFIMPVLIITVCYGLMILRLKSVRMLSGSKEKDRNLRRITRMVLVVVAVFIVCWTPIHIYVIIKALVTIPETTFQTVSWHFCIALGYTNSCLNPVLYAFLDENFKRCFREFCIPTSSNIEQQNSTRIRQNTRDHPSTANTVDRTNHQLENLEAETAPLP

mDOR [1] = biological target: T3, mDOR (Mus musculus, UniProt P32300); assay: [125I]BNtxA radioligand competition binding, mouse DOR; conditions: mean ± SEM, n = 3; [125I]BNtxA; read-out: Ki ± SEM mDOR
T3 construct: expressed in transfected cells
T3 sequence (P32300 whole entry): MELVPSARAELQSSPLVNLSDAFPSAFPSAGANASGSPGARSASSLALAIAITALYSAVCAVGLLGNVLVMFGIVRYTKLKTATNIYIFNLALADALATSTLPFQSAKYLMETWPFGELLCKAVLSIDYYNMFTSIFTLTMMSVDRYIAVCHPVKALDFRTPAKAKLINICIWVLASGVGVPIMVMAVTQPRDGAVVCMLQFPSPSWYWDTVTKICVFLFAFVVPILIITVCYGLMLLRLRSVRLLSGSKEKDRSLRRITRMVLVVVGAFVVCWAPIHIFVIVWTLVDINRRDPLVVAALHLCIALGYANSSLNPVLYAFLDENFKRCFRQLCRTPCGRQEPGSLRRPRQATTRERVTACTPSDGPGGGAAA

mDOR [2] = biological target: T3, mDOR; assay: CAMYEL BRET cAMP agonist assay at mDOR; type: cell-based; conditions: for Agonist activity of 7OH analogs at mDOR: single replicate values, Supplementary Figure 7B
mMOR = biological target: T4, mMOR (Mus musculus, UniProt P42866); assay: CAMYEL BRET antagonism assay at mMOR (inhibition of DAMGO); type: cell-based; conditions: for Antagonist activity at mMOR, raw signal (single replicate values): source data of Fig 8a and Table 5, listed as C11-Br-7OH (24);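 for Antagonist activity at mMOR, raw signal (single replicate values): BRET signal rises as cAMP falls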
T4 construct: signal peptide (heterologous, not specified) (N); expressed in transfected cells; pcDNA3.1(+) construct made in house
T4 sequence (P42866 whole entry): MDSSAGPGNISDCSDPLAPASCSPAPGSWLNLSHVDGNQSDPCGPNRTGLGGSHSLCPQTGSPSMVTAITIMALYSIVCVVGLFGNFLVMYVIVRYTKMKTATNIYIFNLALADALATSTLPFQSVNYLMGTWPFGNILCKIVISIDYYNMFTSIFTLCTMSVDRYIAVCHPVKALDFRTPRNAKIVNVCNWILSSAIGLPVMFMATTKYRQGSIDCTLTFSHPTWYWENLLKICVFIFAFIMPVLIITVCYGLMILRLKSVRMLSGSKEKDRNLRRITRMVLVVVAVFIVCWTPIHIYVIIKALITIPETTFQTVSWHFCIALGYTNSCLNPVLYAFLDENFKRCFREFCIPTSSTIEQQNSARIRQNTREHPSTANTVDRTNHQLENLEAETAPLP

Chain of hDOR (P41143 whole entry): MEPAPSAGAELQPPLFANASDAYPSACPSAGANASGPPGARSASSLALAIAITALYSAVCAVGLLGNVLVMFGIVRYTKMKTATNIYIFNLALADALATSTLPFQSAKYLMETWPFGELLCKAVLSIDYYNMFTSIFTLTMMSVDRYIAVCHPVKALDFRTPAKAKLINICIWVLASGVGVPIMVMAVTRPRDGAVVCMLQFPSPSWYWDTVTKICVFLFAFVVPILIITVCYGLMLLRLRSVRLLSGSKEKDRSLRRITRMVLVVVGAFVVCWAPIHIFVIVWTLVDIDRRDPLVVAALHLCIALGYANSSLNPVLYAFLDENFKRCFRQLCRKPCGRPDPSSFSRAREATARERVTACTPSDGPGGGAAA

CC[C@@H]1CN2CC[C@@]3(O)C(=Nc4cc(Br)cc(OC)c43)[C@@H]2C[C@@H]1/C(=C\OC)C(=O)OC [11-Br-7OH (24), 11-Br-7OH]
Agonist activity of 7OH analogs at hDOR (hDOR; Log[drug] (M) -5): 4.7 and 25.3039 and 6.573 and 24.0158 and 10.0458 and 10.1909 and 12.9945 and 10.3075 | Agonist activity of 7OH analogs at hDOR (hDOR; Log[drug] (M) -6): 13.1842 and 10.2252 and 8.595 and 5.73 and 12.7267 and 14.3479 and 6.336 and 13.8749 | Agonist activity of 7OH analogs at hDOR (hDOR; Log[drug] (M) -7): 14.5317 and -1.155 and 1.334 and 28.0039 and 13.2568 and 5.897 and 5.1203 and 15.4297 | Agonist activity of 7OH analogs at hDOR (hDOR; Log[drug] (M) -8): 10.6504 and 18.084 and 4.153 and 20.0173 and 1.0999 and 15.8027 and 12.7278 and 11.7823 and 20.1626 | Agonist activity of 7OH analogs at hDOR (hDOR; Log[drug] (M) -9): 19.553 and 11.3403 and 28.4089 and 9.179 and -1.427 and -6.158 and 5.452 and 0.7244 and 17.3106 | Agonist activity of 7OH analogs at hDOR (hDOR; Log[drug] (M) -10): 3.839 and 3.779 and 7.219 and -2.673 and 3.726 and -0.9121 and -0.9075 and -0.119 and 1.027 | Agonist activity of 7OH analogs at hDOR (hDOR; Log[drug] (M) -11): 6.722 and 21.7822 and 0.8452 and 0.831 and -3.07 and 2.24 and 15.2814 and 3.682 and 0.8607 | Agonist activity of 7OH analogs at hDOR (hDOR; Log[drug] (M) -13): -12.8405 and 3.455 and 9.386 and 2.252 and 8.162 and 14.0199 and 6.2368 and 9.608 and 10.0864 | Emax (hDOR; hDOR cAMP BRET, positive control DPDPE): very low efficacy | Agonist activity of 7OH analogs at rKOR (rKOR; Log [drug](M) -5): 25.6296 and -9.743 and 0.6611 and 8.628 and -4.988 and 6.198 and 4.323 and 3.4884 and 6.258 | Agonist activity of 7OH analogs at rKOR (rKOR; Log [drug](M) -6): 5.472 and -3.314 and -2.157 and 12.7013 and 24.7501 and 18.1661 and 1.856 and -1.539 and -0.3161 | Agonist activity of 7OH analogs at rKOR (rKOR; Log [drug](M) -7): 4.7985 and -15.0915 and 10.4804 and 13.2829 and 19.8014 and 0.6752 and 3.169 and 0.0803 and -0.9699 | Agonist activity of 7OH analogs at rKOR (rKOR; Log [drug](M) -8): 15.8006 and 9.743 and 5.004 and 1.565 and 3.381 and -4.9468 and 4.551 and 0.2655 and 16.2208 | Agonist activity of 7OH analogs at rKOR (rKOR; Log [drug](M) -9): 2.391 and 0.4693 and -2.7298 and 8.844 and 10.6443 and -8.128 and 0.4192 and -1.635 and 9.514 | Agonist activity of 7OH analogs at rKOR (rKOR; Log [drug](M) -10): -3.09 and -6.057 and 13.4494 and 16.7517 and 7.424 and 2.462 and 3.397 and 1.924 and 5.164 | Agonist activity of 7OH analogs at rKOR (rKOR; Log [drug](M) -11): -9.158 and 9.8247 and 5.5119 and -1.702 and 25.9779 and 16.6823 and 6.047 and 6.143 and 5.108 | Agonist activity of 7OH analogs at rKOR (rKOR; Log [drug](M) -13): -5.115 and 8.484 and 8.583 and 29.3433 and 7.52 and 9.7517 and 3.9044 and 5.761 and 8.186 | IC50 (hMOR): 1970 nM | Ki (mDOR [1]): 57.7 ± 6.7 nM | Agonist activity of 7OH analogs at mDOR (mDOR [2]; Log[drug] (M) -5): 13.8013 and 18.9976 and 33.2307 and 22.3286 and 13.395 and 16.9068 and 13.8361 and 11.2191 and 18.2655 | Agonist activity of 7OH analogs at mDOR (mDOR [2]; Log[drug] (M) -6): 28.5316 and 7.81 and 20.2665 and 20.4093 and 17.1261 and 17.3487 and 14.4976 and 7.195 and 12.5927 | Agonist activity of 7OH analogs at mDOR (mDOR [2]; Log[drug] (M) -7): 11.1893 and 13.4547 and 27.5656 and 14.54 and 12.7942 and 5.698 and 4.253 and 2.065 and 7.661 | Agonist activity of 7OH analogs at mDOR (mDOR [2]; Log[drug] (M) -8): 10.5957 and 18.0747 and 9.651 and 4.935 and -3.078 and 4.75 and 6.109 and 1.285 and 9.808 | Agonist activity of 7OH analogs at mDOR (mDOR [2]; Log[drug] (M) -9): 17.3278 and 15.5005 and 47.145 and -2.094 and 7.434 and -5.339 and 5.642 and -1.53 and 3.1 | Agonist activity of 7OH analogs at mDOR (mDOR [2]; Log[drug] (M) -10): 8.93 and 5.939 and 6.52 and 4.461 and 5.129 and -1.733 and 2.478 and 3.975 and -1.971 | Agonist activity of 7OH analogs at mDOR (mDOR [2]; Log[drug] (M) -11): 10.869 and 6.17 and -5.4274 and 13.8383 and 9.771 and 11.6667 and 2.792 and -1.117 and -1.6751 | Agonist activity of 7OH analogs at mDOR (mDOR [2]; Log[drug] (M) -13): -4.49 and 2.526 and 1.964 and 13.4101 and 7.388 and 17.2326 and -5.081 and 4.508 and 13.385 | Emax (mDOR [2]; mDOR cAMP BRET, positive control DPDPE): very low efficacy | IC50 (mMOR): 550 nM | Antagonist activity at mMOR, raw signal (single replicate values) (mMOR; Log[drug] (M) -5): 0.01588 and 0.02679 and 0.02408 and 0.03029 and 0.008675 and 0.02853 and 0.02577 and 0.02856 and 0.04207 | Antagonist activity at mMOR, raw signal (single replicate values) (mMOR; Log[drug] (M) -6): 0.07568 and 0.07832 and 0.06492 and 0.08421 and 0.0634 and 0.06872 and 0.08325 and 0.0829 and 0.07977 | Antagonist activity at mMOR, raw signal (single replicate values) (mMOR; Log[drug] (M) -7): 0.1777 and 0.1753 and 0.1839 and 0.1921 and 0.1726 and 0.1908 and 0.1553 and 0.1528 and 0.1604
